This passage reports IC50, EC50 and selectivity ratio results from ChEMBL document CHEMBL1127210, “Synthesis of 5-glycosylamino pyrimidines. A new class of compounds with potential anti-aids activity” (Bioorg Med Chem Lett, 1993).

The test system of data set [1] is CCRF-CEM. Nature of the data set: (§1) In vitro inhibitory activity against HIV infected T4 lymphocytes (CEM cell line). It is filed as functional, cell-based, Homo sapiens.
Data set [2] relates to CCRF-CEM. The data set is described as §1. The settings on record: Homo sapiens. In kind it is functional, cell-based.
The nature of data set [3]: Therapeutic index (IC50/EC50) was determined.
In data set [4] the test system is CCRF-CEM. The data set can be described thus: Tested for in vitro anti HIV activity against T4 lymphocytes (CEM cell lines) and effective concentration was reported. In kind it is functional, cell-based. The settings on record: Homo sapiens.

The IC50 is the concentration at which inhibition is half-maximal. One may read the EC50 as the midpoint of the concentration-response curve. High values mean weaker potency, low ones greater potency. `COc1nc(N)c(NC2O[C@H](CO)[C@@H](O)[C@H]2O)c(=O)n1C` (some centres undefined): the half-inhibitory concentration (IC50) in data set [1] (Homo sapiens, CCRF-CEM) was above 830 µM. The molecule further returned a concentration for a half-maximal effect (EC50) in data set [2] of 64 µM. The selectivity ratio in data set [3] is above 13.
In the case of `COc1nc(N)c(NC2O[C@H](CO)[C@H](O)[C@H]2O)c(=O)n1C` (some centres undefined), inhibition in data set [1] (Homo sapiens, CCRF-CEM) was half-maximal at 220 µM (IC50). The molecule also had an EC50 in data set [4] of 140 µM. Further, the selectivity ratio in data set [3] was above 1.6.
`COc1nc(N[C@H]2OC[C@@H](O)[C@H](O)[C@H]2O)c(NC2O[C@@H](CO)[C@@H](O)[C@@H]2O)c(=O)n1C` (some centres undefined): the IC50 in data set [1] (Homo sapiens, CCRF-CEM) was above 580 µM.
In turn, `COc1nc2nc(C(O)C(O)CO)cnc2c(=O)n1C` (stereo in doubt; 10) came in with a half-inhibitory concentration (IC50) in data set [1] (ccrf-cem) above 890 µM.
On to `COc1nc2nc(C(O)C(O)CO)cnc2c(=O)n1C` (stereo in doubt; 11), for which the IC50 in data set [1] (ccrf-cem) was above 220 µM.
